Measurements from article PMC12186697, “HypoxyStat, a small-molecule form of hypoxia therapy that increases oxygen-hemoglobin affinity” (Cell, 2025).
“And” between values parts separate entries of the source, which are not always exact repeats. Identical values can stand only once.

What was measured:
Hb = test system: Hb; design: method as in PMID 28337324; conditions: Figure 2A; cited from earlier work
Ndufs4 KO mouse = Ndufs4 KO mouse model of Leigh syndrome (survival, body weight, temperature, behavior, neuropathology); format: in vivo
From the text: We continuously bred Ndufs4 Het x Het mice to generate KO and controls for our experiments. Ndufs4+/− and WT mice were used as controls as they are identical in all previously reported assays. Ndufs4 mice were obtained directly from Jackson labs (#027058). Pups were weaned and genotyped at ~21 d after birth. The age of mice at the time of experiments is described throughout the text. Male and female mice were used throughout studies. All cages were provided with food and water, with hydrated gel provided to newly weaned cages. Body weights were recorded at every dosing. Mice were euthanized according to guidelines at 20% drop in peak body weight. All animal studies were approved by the Institutional Animal Care & Use Committee (IACUC) Program at UCSF/Gladstone.
Mice were administered HypoxyStat at 600 mg/kg every other day or 400mg/kg daily via oral gavage. For the disease prevention experiments, KO mice that underwent daily dosing were dosed starting ~P30 for 1 week of 200mg/kg daily, followed by 400mg/kg daily to allow for gradual dose escalation. For the reversal study, KO mice were dosed once with 200mg/kg on postnatal day ~P55, followed by 400mg/kg daily. HypoxyStat was formulated as a suspension at 60 mg/mL, 40mg/ml or 80mg/ml depending on dose in 0.5%HPMC and stored at 4 °C. The formulation was determined to be stable for at least 8 weeks. Animal body weight was taken at time of dosing to determine appropriate dosing volume (10 mL/kg for every other day dosing, 5ml/kg for daily dosing). Vehicle treated mice were administered the same volume of 0.5% HPMC.
Mice were euthanized via CO2 inhalation. To perfuse the whole body, the right atrium was nicked and a needle was inserted into the left ventricle. Ice-cold PBS was slowly injected first, followed immediately by 4% PFA solution. The brain was removed, stored in 4% PFA for 24–48 h, and then washed with PBS for 5 min (3 times). The brains were placed in 70% ethanol followed by paraffin embedding. For paraffin sections, brains were sagittally sectioned at 5 μm thickness. Prior to staining, sections were deparaffinized. Antigen retrieval was performed by heating the slides to boiling temperature in 10 mM sodium citrate solution (pH 6) in a microwave, followed by heating for 10 minutes. The sections were rinsed 3 times for 5 minutes each with PBS. They were then incubated in a blocking solution containing 5% donkey serum (DS) in PBS-Tx (PBS with 0.2% Triton X-100) for 60 minutes at room temperature. After blocking, sections were incubated overnight at 4C with the primary antibody IBA1 (Genetex GTX100042, 1:250) and NeuN (Sigma, MAB377, 1:500). Afterward, the sections were rinsed 3 times for 5 minutes with PBS-Tx. Next, they were incubated with a fluorophore-conjugated secondary antibodies (Invitrogen, A21206 or A31570) for 1 hour at room temperature. Following secondary antibody incubation, the sections were rinsed 3 times for 5 minutes with PBS-Tx, and then once for 5 minutes with PBS. Histology was quantified using either the percentage of Iba1+ positive signal or blinded scoring (on the scale of 1–5).
The open field instrument (San Diego Instruments) was used to measure spontaneous locomotor activity. Mice were placed in open field chambers and allowed to acclimate for 5 min before movement tracking for 20min. Spontaneous locomotor activity was measured based on beam breaks and recorded by the instrument. Age of measurements is +/− 5 days for practical purposes without any age bias between groups.

[1] = design: method as in PMID 28337324; conditions: Figure 2A, cited from earlier work
[2] = test system: hypoxia transcriptional response (HIF); assay: Hypoxia biomarkers in mice (plasma Epo, hematocrit, blood glucose, hypoxia-induced brain transcripts); format: in vivo, mouse; conditions: GBT-440
Protocol: Plasma Epo measurements were performed with R&D Systems Epo Elisa Kit (MEP00B) according to manufacturer directions. Briefly, whole blood was collected with anticoagulant before centrifugation within 30 minutes of collection and stored at −80C until day of analysis. On the day of Epo assay, samples were thawed and diluted 2-fold and incubated in the assay plate for two hours. Each well was washed five times before the addition of Epo Conjugate followed by a two-hour incubation. Each well was washed five times before adding Substrate Solution to develop for 30 minutes before addition of Stop Solution. The optical density of each well was determined at 450nm and correction wavelength of 540/570.
Hematocrit was determined with an iStat VetScan 1 with Zoetis Chem 8+ cartridges. Blood glucose measurements were performed using OneTouch UltraPlus glucometer. Whole blood chemistry measurements were performed on a VetScan HM5.
Half of the hindbrain was collected at necropsy and immediately flash frozen. For RNA extraction, a stainless-steel bead (Qiagen) and 1 mL TRIzol™ Reagent (Thermo Fisher Scientific) were added to the frozen samples, which were rapidly lysed using a tissue lyser (Qiagen) for five 1-minute cycles of 30 Hz frequency. Subsequent steps for RNA isolation were identical as previously described.[9] Reverse transcription was performed using the QuantiTect Reverse Transcription Kit (Qiagen) instructions. Briefly, gDNA was wiped out from samples containing 1 μg RNA. gDNA-free RNA samples were reverse transcribed following Qiagen’s instructions. […] For each set of triplicates, an average CT value was obtained, and the difference in average CT between the target gene and β-actin was calculated (ΔCT). Next, the difference in ΔCT value between each sample and the average of the normoxia samples was calculated (ΔΔCT). Relative expression of each gene was determined by calculating 2^−ΔΔCT.

[3] = target: T1, hemoglobin (Hb) in human red blood cells (Homo sapiens, UniProt P69905); assay: Oxy-hemoglobin dissociation curve (Hemox Analyzer), p50; format: biochemical
T1 construct: incubated for at least one hour at 37C with whole blood before Hemox analysis; endogenous in cells; host or cells: human red blood cells / whole blood
T1 sequence (P69905 2-142 limits assumed): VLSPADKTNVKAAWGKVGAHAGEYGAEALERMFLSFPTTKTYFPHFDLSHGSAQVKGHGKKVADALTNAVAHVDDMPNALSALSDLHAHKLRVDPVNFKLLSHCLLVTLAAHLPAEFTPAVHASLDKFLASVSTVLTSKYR
T1 sequence (P68871 2-147 partner limits assumed): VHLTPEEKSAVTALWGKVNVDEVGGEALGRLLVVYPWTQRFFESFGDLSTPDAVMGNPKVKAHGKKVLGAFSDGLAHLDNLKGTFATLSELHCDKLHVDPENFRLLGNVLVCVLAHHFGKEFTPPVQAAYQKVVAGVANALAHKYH
Protocol: One of the most extensively studied compounds for sickle cell anemia is GBT-440 (Voxelotor) (Figure 1B).[25] The extent of left-shifting can be assessed by determining the p50 or the partial pressure of oxygen at which half of the total Hb pool is bound to oxygen. We incubated human red blood cells with GBT-440 and observed a ~75% decrease in p50 (from ~28 to ~7 mmHg), consistent with previously reported values (Figure 1D). Experiments were performed using a HemOx analyzer that monitors oxygen saturation via Hb absorbance across a range of dissolved oxygen tensions. Upon further review of the sickle cell anemia literature, we found another compound, hereafter termed HypoxyStat (Figure 1B), which appeared to have a similar p50 as GBT-440.[26] We confirmed that HypoxyStat induced an ~82% decrease in p50 (Figure 1D).
Oxy-hemoglobin dissociation analysis was performed by the UCSF RBC laboratory using the TCS Hemox Analyzer (TCS Medical Products Company, Huntington Valley, PA). Initial pO2 is set to 160 mmHg. Hemoglobin is fully oxygenated under these conditions (HbO% =100). Replacement of air with nitrogen lowers pO2 and is measured by Clark electrode along with the change in the absorbance spectrum of hemoglobin. At a pO2 of 0 mmHg, hemoglobin is fully deoxygenated (HbO% =0). The relation between pO2 and HbO% is plotted, and the pO2 at which HbO% = 50% is defined as P50. The typical sigmoid de-oxygenation curve of normal blood with a P50 of 26–28 mmHg is used as a control for incubation conditions and to ensure proper function of the Hemox analyzer. For left-shifter comparison, the compounds were dissolved in HEPES buffered saline and then incubated for at least one hour at 37C with whole blood before Hemox analysis. A control of whole blood incubated with vehicle is also reported.

[4] = GBT-440 daily maximal dosing from P30

## CC(C)n1nccc1-c1ncccc1COc1cccc(O)c1C=O [GBT-440]
Hb
  Hb occupancy: 6.5%
Ndufs4 KO mouse; GBT-440 daily maximal dosing (400 mg/kg after 1 week at 200 mg/kg) from P30
  lifespan of Ndufs4 KO mice vs vehicle: did not result in a significant lifespan extension
Ndufs4 KO mouse; [4]
  spontaneous movement (open field), Ndufs4 KO mice: failed to rescue
  time on an accelerating rotating rod, Ndufs4 KO mice: failed to rescue
Ndufs4 KO mouse; GBT-440 daily maximal dosing from P30, ~P55
  body temperature of Ndufs4 KO mice: failed to rescue
[1]; PO
  Mouse PO blood:plasma: 63.2
  Mouse PO half-life: 15.8 h
[1]; mouse
  Cmax: 2210 nM
[2]
  hypoxia biomarker response compared with HypoxyStat and inhaled hypoxia: significantly blunted response
[3]; human red blood cells incubated 1 h with 10 mM compound, vehicle ~28 mmHg
  p50: 7.2 mmHg and ~ 7 mmHg
[3]; human red blood cells incubated with compound, vs vehicle
  decrease in p50: ~ 75%
